In PubChem BioAssay AID1259408 (Genetic Toxicology Data Bank (GENE-TOX), 2018):
Calls of active or inactive are those of the source. How the calls were made is not given here.

Test system: GENE-TOX genotoxicity assays, various organisms and cells
Experiment: GENE-TOX mutagenicity studies
Details: for call: Assay Type: In vivo carcinogenicity studies
[1] = Species/Cell Type: Drosophila melanogaster, Assay Type: Sex-linked recessive lethal gene mutation, Assay Code: SRLT, Evaluation Type: Evaluation A (Pre-1980)
[2] = Species/Cell Type: Mammalian polychromatic erythrocytes, Assay Type: Micronucleus test, chromosome aberrations, Assay Code: MNTT, Evaluation Type: Evaluation A (Pre-1980)
[3] = Species/Cell Type: Mouse, Sex: Male, Assay Type: Sperm morphology, Assay Code: SPI-, Evaluation Type: Evaluation A (Pre-1980)
[4] = Species/Cell Type: Nonhuman, Assay Code: CCG+, Evaluation Type: Evaluation A (Pre-1980)
[5] = Species/Cell Type: Saccharomyces cerevisiae, Assay Type: Mitotic recombination or gene conversion, Assay Code: YEH-, Evaluation Type: Evaluation A (Pre-1980)
[6] = Species/Cell Type: Salmonella typhimurium (one or more of the five standard strains: TA98, TA100, TA1535, TA1537, and TA1538), Assay Type: Histidine reverse gene mutation, Ames assay, Assay Code: SAL-, Evaluation Type: Evaluation A (Pre-1980)
[7] = Species/Cell Type: Salmonella typhimurium, Assay Type: Forward and reverse gene mutation, host-mediated assay, Assay Code: HMA+, Evaluation Type: Evaluation A (Pre-1980)
[8] = Species/Cell Type: Human, Sex: Male, Assay Type: Sperm morphology, Assay Code: SPH+, Evaluation Type: Evaluation A (Pre-1980)
[9] = Species/Cell Type: Schizosaccharomyces pombe, Assay Type: Reverse gene mutation, Assay Code: YEZ+, Evaluation Type: Evaluation A (Pre-1980)
[10] = Species/Cell Type: Saccharomyces cerevisiae, Assay Type: Reverse gene mutation, Assay Code: YERT, Evaluation Type: Evaluation A (Pre-1980)
[11] = Species/Cell Type: Salmonella typhimurium (one or more of the five standard strains: TA98, TA100, TA1535, TA1537, and TA1538), Assay Type: Histidine reverse gene mutation, Ames assay, Assay Code: SALT, Evaluation Type: Evaluation A (Pre-1980)
[12] = Species/Cell Type: Saccharomyces cerevisiae, Assay Type: Mitotic recombination or gene conversion, Assay Code: YEC-, Evaluation Type: Evaluation A (Pre-1980)
[13] = Species/Cell Type: Human lymphocytes, Assay Type: Sister-chromatid exchange (SCE) in vitro, Assay Code: SCL+D, Dose Response: With dose response, Evaluation Type: Evaluation B (Post-1980)
[14] = Species/Cell Type: Human, Assay Type: Sister-chromatid exchange (SCE) in vitro, Assay Code: SC1+D, Dose Response: With dose response, Evaluation Type: Evaluation B (Post-1980)
[15] = Species/Cell Type: Salmonella typhimurium (one or more of the five standard strains: TA98, TA100, TA1535, TA1537, and TA1538), Assay Type: Histidine reverse gene mutation, Ames assay, Assay Code: SAL+, Evaluation Type: Evaluation A (Pre-1980)
[16] = Species/Cell Type: Mammalian polychromatic erythrocytes, Assay Type: Micronucleus test, chromosome aberrations, Assay Code: MNT+U, Dose Response: Unconfirmed positive response, Evaluation Type: Evaluation B (Post-1980)

Nc1ncn[nH]1
mutagenic call (Species/Cell Type: Allium cepa, Assay Type: Chromosome aberrations, Assay Code: ALC+, Evaluation Type: Evaluation A (Pre-1980)): active; positive
mutagenic call (Species/Cell Type: Drosophila melanogaster, Assay Type: Aneuploidy, sex chromosome gain, chromosome aberrations, Assay Code: DAG-F, Evaluation Type: Evaluation A (Pre-1980)): inactive; negative
mutagenic call (Species/Cell Type: Drosophila melanogaster, Assay Type: Aneuploidy, whole sex chromosome loss, chromosome aberrations, Assay Code: DAC-F, Evaluation Type: Evaluation A (Pre-1980)): inactive; negative
mutagenic call [1]: no conclusion
mutagenic call (Species/Cell Type: Escherichia coli polA (W3110 vs P3478), Assay Type: Rec-assay, DNA effects (bacterial DNA repair), Assay Code: RE2-, Evaluation Type: Evaluation A (Pre-1980)): inactive; negative
mutagenic call (Species/Cell Type: Escherichia coli polA (W3119 vs P3478), Assay Type: Rec-assay, DNA effects (bacterial DNA repair), Assay Code: RE1-, Evaluation Type: Evaluation A (Pre-1980)): inactive; negative
mutagenic call (Species/Cell Type: Fischer rat embryo (RLV/1706) cells, Assay Type: Cell transformation, viral enhanced, Assay Code: CTR+, Evaluation Type: Evaluation A (Pre-1980)): active; positive
mutagenic call (Species/Cell Type: Hordeum vulgare (barley), Assay Type: Chromosome aberrations, Assay Code: HOC+, Evaluation Type: Evaluation A (Pre-1980)): active; positive
mutagenic call (Species/Cell Type: Human diploid fibroblasts, Assay Type: Unscheduled DNA synthesis (UDS) in vitro, DNA effects, Assay Code: UDH-, Evaluation Type: Evaluation A (Pre-1980)): inactive; negative
mutagenic call [2]: no conclusion
mutagenic call [3]: inactive; negative
mutagenic call (Species/Cell Type: Neurospora crassa, Assay Type: Aneuploidy, chromosome aberrations, Assay Code: NEN-, Evaluation Type: Evaluation A (Pre-1980)): inactive; negative
call [4]: active; positive
mutagenic call (Species/Cell Type: Nonhuman, Assay Type: Sister-chromatid exchange (SCE) in vitro, Assay Code: SC2+D*, Activation: With metabolic activation, Dose Response: With dose response, Evaluation Type: Evaluation B (Post-1980)): active; positive
mutagenic call [5]: inactive; negative
mutagenic call [6]: inactive; negative
mutagenic call [7]: active; positive
mutagenic call (Species/Cell Type: Syrian hamster embryo (SHE) cells, Assay Type: Cell transformation, clonal assay, Assay Code: CTC+, Evaluation Type: Evaluation A (Pre-1980)): active; positive
mutagenic call (Species/Cell Type: Vicia faba, Assay Type: Chromosome aberrations, Assay Code: VIC+, Evaluation Type: Evaluation A (Pre-1980)): active; positive

CN(C)c1ccc2cc3ccc(=[N+](C)C)cc-3sc2c1
mutagenic call (Species/Cell Type: Saccharomyces cerevisiae, Assay Type: Reverse gene mutation, Assay Code: YER-, Evaluation Type: Evaluation A (Pre-1980)): inactive; negative

CCN(CCCCCCN(CC)C(=O)C(Cl)Cl)C(=O)C(Cl)Cl
mutagenic call [8]: active; positive

CN(C)C(=O)N1CC1
mutagenic call [9]: active; positive

COc1ccc(C(=O)N2c3ccccc3Cc3ccccc32)cc1
mutagenic call [8]: active; positive

CCOc1ccc(CC(=O)NN)cc1CN(CC)CC
mutagenic call [10]: no conclusion

NCCBr
mutagenic call [9]: active; positive

Nc1c(O)cc(S(=O)(=O)O)c2ccccc12
mutagenic call [11]: no conclusion

O[C@@H]1C=Cc2c(cc3ccc4cccc5ccc2c3c45)[C@H]1O
mutagenic call (Species/Cell Type: Chinese hamster lung (V79) cells, Assay Type: Forward gene mutation at the HPRT or ouabain locus, Assay Code: V79+, Evaluation Type: Evaluation A (Pre-1980)): active; positive
call (Species/Cell Type: Nonhuman, Assay Code: CCG+L, Evaluation Type: Evaluation A (Pre-1980)): active; positive

CC(C)(OO)c1ccccc1
mutagenic call [12]: inactive; negative

CN(C)CCc1c[nH]c2cccc(OP(=O)(O)O)c12
mutagenic call [2]: no conclusion

NP(=S)(N1CC1)N1CC1
mutagenic call [13]: active; positive
mutagenic call [14]: active; positive
mutagenic call (Species/Cell Type: Nonhuman, Assay Type: Sister-chromatid exchange (SCE) in vitro, Assay Code: SC2+D, Dose Response: With dose response, Evaluation Type: Evaluation B (Post-1980)): active; positive

CCCC(C)(C)C(=O)Nc1ccc(Cl)cc1
mutagenic call [12]: inactive; negative

c1ccc2c(c1)ccc1nc3c(ccc4ccccc43)nc12
mutagenic call [1]: no conclusion

O=S1(=O)OCCO1
mutagenic call [15]: active; positive
mutagenic call [7]: active; positive

CCCCOc1ccc(CC(=O)OC)cc1CSC(=N)N
mutagenic call [10]: no conclusion

O=c1ccc2ccc3occc3c2o1
mutagenic call (Species/Cell Type: Mammalian cell culture, nonhuman, Assay Type: Micronucleus test in vitro, chromosome aberrations, Assay Code: MN&+, Evaluation Type: Evaluation A (Pre-1980)): active; positive
mutagenic call [10]: no conclusion

CCC1(c2ccccc2)C(=O)N=C(O)NC1=O (stereo not given)
mutagenic call [1]: no conclusion
mutagenic call [3]: inactive; negative
mutagenic call (Species/Cell Type: Nonhuman, Assay Type: Sister-chromatid exchange (SCE) in vivo, Assay Code: SC3T, Evaluation Type: Evaluation B (Post-1980)): no conclusion
mutagenic call [6]: inactive; negative

CNC(=O)N(C)N=O
mutagenic call (Species/Cell Type: Arabidopsis species, Assay Type: Gene mutation, Assay Code: ARM+, Evaluation Type: Evaluation A (Pre-1980)): active; positive
mutagenic call [15]: active; positive
mutagenic call (Species/Cell Type: Zea mays (corn), Assay Type: Gene mutation, Assay Code: ZEM+D, Dose Response: With dose response, Evaluation Type: Evaluation A (Pre-1980)): active; positive

CCC[CH2][Sn]([CH2]CCC)([CH2]CCC)[O][Sn]([CH2]CCC)([CH2]CCC)[CH2]CCC
mutagenic call [16]: active; positive

CC(C)NCC1CCc2cc(CO)c([N+](=O)[O-])cc2N1 (stereo not given)
mutagenic call (Species/Cell Type: Rodents, Sex: Male, Assay Type: Dominant lethal test, Assay Code: DLT-, Evaluation Type: Evaluation A (Pre-1980)): inactive; negative
mutagenic call [15]: active; positive
mutagenic call (Species/Cell Type: Salmonella typhimurium, Assay Type: Forward and reverse gene mutation, body fluid assay, Assay Code: BFU+, Evaluation Type: Evaluation A (Pre-1980)): active; positive
mutagenic call [7]: active; positive

CC1=C[C@H]2[C@@]3(O)[C@H](C)[C@@H](O)[C@]4(O)[C@H]([C@@H]3C=C(CO)C[C@]2(O)C1=O)C4(C)C
mutagenic call (Species/Cell Type: Escherichia coli polA (W3119 vs P3478), Assay Type: Rec-assay, DNA effects (bacterial DNA repair), Assay Code: RE1T, Evaluation Type: Evaluation A (Pre-1980)): no conclusion
mutagenic call [5]: inactive; negative

CC(=O)OC[C@H]1O[C@@H](Oc2ccc3c(c2O)C(=O)c2ccccc2C3=O)[C@H](OC(C)=O)[C@@H](OC(C)=O)[C@@H]1OC(C)=O
mutagenic call [11]: no conclusion

O=C(O)CCCc1ccc(N(CCCl)CCCl)cc1
mutagenic call (Species/Cell Type: Chinese hamster ovary (CHO) cells, Assay Type: Forward gene mutation at the HPRT locus, Assay Code: CHO+, Evaluation Type: Evaluation B (Post-1980)): active; positive
mutagenic call (Species/Cell Type: Drosophila melanogaster, Assay Type: Sex-linked recessive lethal gene mutation, Assay Code: SRL+, Evaluation Type: Evaluation A (Pre-1980)): active; positive
mutagenic call (Species/Cell Type: Human lymphocytes, Assay Type: Sister-chromatid exchange (SCE) in vitro, Assay Code: SCL+D, Dose Response: With dose response, Evaluation Type: Evaluation A (Pre-1980)): active; positive
mutagenic call [13]: active; positive
mutagenic call (Species/Cell Type: Human lymphocytes, Assay Type: Sister-chromatid exchange (SCE) in vivo, Assay Code: SCY+, Evaluation Type: Evaluation B (Post-1980)): active; positive
mutagenic call (Species/Cell Type: Human, Assay Type: Sister-chromatid exchange (SCE) in vitro, Assay Code: SC1+D, Dose Response: With dose response, Evaluation Type: Evaluation A (Pre-1980)): active; positive
mutagenic call [14]: active; positive
mutagenic call [8]: active; positive
mutagenic call (Species/Cell Type: Mammalian polychromatic erythrocytes, Assay Type: Micronucleus test, chromosome aberrations, Assay Code: MNT+, Evaluation Type: Evaluation B (Post-1980)): active; positive
call [4]: active; positive
mutagenic call (Species/Cell Type: Nonhuman, Assay Type: Sister-chromatid exchange (SCE) in vitro, Assay Code: SC2+, Evaluation Type: Evaluation B (Post-1980)): active; positive
mutagenic call (Species/Cell Type: Saccharomyces cerevisiae, Assay Type: Mitotic recombination or gene conversion, Assay Code: YEC+, Evaluation Type: Evaluation A (Pre-1980)): active; positive
mutagenic call (Species/Cell Type: Saccharomyces cerevisiae, Assay Type: Reverse gene mutation, Assay Code: YER+, Evaluation Type: Evaluation A (Pre-1980)): active; positive

O=c1c(O)c(-c2ccccc2)oc2cc(O)cc(O)c12
mutagenic call [16]: active; positive
mutagenic call (Species/Cell Type: Nonhuman, Assay Type: Sister-chromatid exchange (SCE) in vitro, Assay Code: SC2+*, Activation: With metabolic activation, Evaluation Type: Evaluation B (Post-1980)): active; positive
